Test results as given in ChEMBL document CHEMBL1123160, “(1-Amino-2-propenyl) phosphonic acid, an inhibitor of alanine racemase and D-alanine:D-alanine ligase” (J Med Chem, 1986).
pKi: −log10 of the molar value.

Columns and labels:
[1] = (§1) The compound was tested for the inhibition of D-alanine:D-alanine ligase from streptococcus faecalis; parameters: species or system Enterococcus faecalis
[2] = test system: Enterococcus faecalis; experiment: as §1

With `C=CC(N)P(=O)(O)O` (configuration not stated) the pKi [1] was 2.30 and the Km [2] was 7 mM.
